Patent publication US9045401B2, “Methods for treating or ameliorating a melanoma and killing melanoma cells” (THE REGENTS OF THE UNIVERSITY OF CALIFORNIA, priority 2007, dated 2015)
Values after ≈ are worked out from the molar mass of the structure shown.

Columns and labels:
[1] = tested on: Transgenic Tg(fli1:EGFP) zebrafish embryos; assay: blood vessel formation in zebrafish; assay type: in vivo; conditions: for blood vessel growth and angiogenesis: 80 nM to 3 μM in the water, dose-dependent; for viability / acute toxicity to the fish: 24 hour period of the study
Description: Zebrafish Experiments. Blood vessel formation in Zebrafish: Transgenic Tg(fli1:EGFP) zebrafish embryos were purchased from www.zfin.org as reported elsewhere (34). Adult fish and embryos were maintained according to “Zebrafish—A Practical Approach” (35). ScA compound in DMSO stock solution was diluted directly into the water and zebrafish intersegmental vessels were imaged using Nikon c1-si confocal microscope after the times specified. Raw image datasets were processed using IMARIS 3D™ image analysis software. All animal procedures were conducted in accordance with all appropriate regulatory standards under protocol #S06008 approved by the University of California San Diego (UCSD) Institutional Animal Care and Use Committee.

[2] = tested on: chick chorioallantoic membrane; assay: bFGF-induced angiogenesis in chick chorioallantoic membrane; assay type: in vivo; conditions: local introduction, 100 ng bFGF disks, 72 hours
Description: FIG. 31(A-F): Transgenic Tg(fli1:EGFP) zebrafish embryos in which GFP is expressed in endothelial cells were incubated without (A) or with increasing concentrations of ScA: 80 nM in FIG. 31(B), 160 nM in FIG. 31(C), 300 nM in FIG. 31(D) 1.6 μM in FIG. 31(E) or 3 μM in FIG. 31(F), and blood vessel morphology recorded by fluorescence microscopy. FIG. 31(G) Filter disks impregnated with 100 ng of bFGF were placed on the chorioallantoic membrane of eleven day old chicks to induce angiogenesis in the absence or presence of ScA, as shown. After 72 hours (h), disks were removed and the vascularity of the underlying chorioallantoic membrane determined by direct counting of branch points using a dissecting microscope. FIG. 31(H): NB7 neuroblastoma cells lacking caspase 8 (filled bar) or NB7-C8 cells reconstituted for caspase 8 expression (open bars) were seeded into ten day old chick chorioallantoic membranes to form tumors. After 72 hours, ScA was added topically to each growing tumor mass. Tumors were harvested and resected on day 8, and mass (wet weight) determined. Data shown is the mean±SD (N=8-12).
Chick Chorioallantoic membrane studies. The CAM studies were performed using 10 day old chick embryos as we've previously described (36). […]

[3] = tested on: mouse neuro-2a neuroblastoma cells; conditions: cytotoxicity; cited from earlier work
[4] = chemical stability; assay type: physicochemical

In the case of C=CC/C=C/N(C)C(=O)CCCCCCCC/C=C/[C@H](CSSC[C@@H](/C=C/CCCCCCCCC(=O)N(C)/C=C/CC=C)NC(C)=O)NC(C)=O [somocystinamide A, Somocystinamide A], the “blood vessel growth and angiogenesis” value [1] is reported as “potently inhibited angiogenesis”, the “blood vessel growth and angiogenesis” value ([1]; listed as ScA) is reported as “blocked blood vessel growth and angiogenesis” and the “viability / acute toxicity to the fish” value [1] is reported as “without acute toxicity”. The “viability / acute toxicity to the fish” value ([1]; listed as ScA) was “all of the fish remained viable”, the growth factor-induced angiogenesis [2] was “potently blocked growth factor-induced angiogenesis” and the IC50 [3] was 1.4 µg/mL (≈ 1.84 µM). For the same compound, the storage stability ([4]; apart from hydrolytic degradation of the unsaturated amide) was “otherwise quite stable” and the acid sensitivity ([4]; converts to compound 2) was “highly acid-sensitive”.
